Measurements: patent publication US12583884B2, “3beta-(benzyloxy)-17alpha-methyl-pregn-5-en-20-one for use in the treatment of cognitive disorders” (AELIS FARMA, priority 2018, dated 2026)

Key:
Assay type in all cases: in vivo, mouse
[1] = system: 19 to 22-month-old C57B1/6J mice; assay: Declarative/relational memory (radial maze flexibility test), aged mice; conditions: 0.6 μg/ml in drinking water, chance level 50%
Protocol: The relational memory task was performed using 8-arm radial mazes described in Example 3b. Food restriction and habituation procedures were performed as described in Example 3b. Acquisition began 24 h after the last habituation session. The acquisition stage consisted in learning the positions of the food pellets within the maze. […] One arm of each pair contained reward at its end, the other arm of each pair was not baited.
Acquisition is based on a go-no go procedure. The arms are presented one by one. Subjects are expected to visit the rewarded arms faster than the non-rewarded arms. At the beginning of each daily session, the mouse was placed at the center of the maze with no access to the arms. The doors of the first arm then opened. […] The door of an arm then open immediately after (0-sec inter-trial interval). […] Each daily session contained 40 successive arm presentations (i.e. trials) organized into two distinct temporal sequences. In the first sequence (20 trials), four arms of the maze were presented alternatively (two baited and two non-baited). Consecutively, the second sequence started (20 trials); the four other arms of the maze were presented alternatively (two baited and two non-baited). […]
At each trial, the latency to visit the arm is measured. […]
Flexibility of learning was evaluated in the following conditions. […]
The percentage of correct responses for each pair was measured. […]

[2] = Spontaneous behaviors in the home cage (video analysis); conditions: 30 mg/kg per os; 24 hours video analysis
Ts65Dn mice = assay: Short-term sequential object recognition, Down syndrome model; conditions: 0.6 μg/ml in drinking water, 2 months, delays 5 and 35 min
Protocol: Mice were allowed to explore 3 different objects (A, B, C) presented one after the other and following one of the two possible sequences: A-C-C-B-A and A-B-C-C-A. In an open field, mice were exposed to object A for 5 min and then placed back into their home cage. After a delay of 5 minutes, mice were exposed to object B or C for 5 min and then placed back into their home cage, and so on. Consequently, the retention delay between two presentations of object C was of 5 minutes whereas the retention delay between two presentations of object A was of 35 minutes. The time spent exploring object A or C at the first presentation was compared with the time exploring the same object at the second presentation. This parameter is used to evaluate object recognition performances.
Before the object recognition procedure, mice were tested in the radial maze.

With `CC(=O)[C@@]1(C)CC[C@H]2[C@@H]3CC=C4C[C@@H](OCc5ccccc5)CC[C@]4(C)[C@H]3CC[C@@]21C` [3Bn17MeP, 3β-benzyloxy, 17α-methyl-pregn-5-en-20-one] the “Correct responses in the flexibility test (choice accuracy)” value [1] was “more than 70%”, the “Effects on spontaneous behaviors per se” value [2] was “no detectable effects” and the “Exploration of the familiar object (short-term sequential object recognition)” value (Ts65Dn mice) was “explored significantly less the familiar object after 5 and 35 minutes”.
